Assay results: US20250051277A1, “DELIVERY OF THERAPEUTIC ALKALOID COMPOUNDS” (Sensorium Therapeutics, Inc., priority 2021, published 2025)
Where two headings read alike, the source gives them in different places.

Columns and labels:
[1] = 5 μM
[2] = 5 μM; remark: listed apart in the source
[3] = 10 μM
[4] = 10 μM; remark: listed apart in the source
Procedure: 50 μL aliquots of positive controls and test compounds spiked into rat or human plasma (n=2) were added to a pre-warmed plate (37° C.) and shaken at 50 rpm. At each respective time point, the reaction was stopped by adding 500 μL of acetonitrile containing internal standards (100 nM aprozolam, 200 nM caffeine, 100 nM tolbutamide). All samples were vortexed for 10 minutes, followed by centrifugation at 3,220 g for 30 minutes to precipitate proteins. 100 μL of the supernatant is transferred to a new plate. The supernatant will be diluted with ultrapure water according to the LC-MS signal response and peak shape.

[5] = Plasma Stability Assay of Example A3, mouse plasma; details: 5 μM, 37° C., % of prodrug compound remaining
[6] = Plasma Stability Assay of Example A3, human plasma; details: 5 μM, 37° C., % of prodrug compound remaining

SMILES | Human Plasma Compound 001 (%) ([2]; 0 min) | Prodrug (%) remaining, Rat Plasma ([3]; 0 h) | Prodrug (%) remaining, Rat Plasma ([3]; 10 min) | Prodrug (%) remaining, Rat Plasma ([3]; 0.5 h) | Prodrug (%) remaining, Rat Plasma ([3]; 1 h) | Prodrug (%) remaining, Rat Plasma ([3]; 2 h) | Prodrug (%) remaining, Rat Plasma ([3]; 4 h) | Prodrug (%) remaining, Human Plasma ([4]; 0 h) | Prodrug (%) remaining, Human Plasma ([4]; 10 min) | Prodrug (%) remaining, Human Plasma ([4]; 0.5 h) | Prodrug (%) remaining, Human Plasma ([4]; 1 h) | Prodrug (%) remaining, Human Plasma ([4]; 2 h) | Prodrug (%) remaining, Human Plasma ([4]; 4 h) | Mouse Plasma Prodrug (%) ([5]; 0 min) | Mouse Plasma Prodrug (%) ([5]; 15 min) | Mouse Plasma Prodrug (%) ([5]; 30 min) | Mouse Plasma Prodrug (%) ([5]; 60 min) | Mouse Plasma Prodrug (%) ([5]; 120 min) | Mouse Plasma Prodrug (%) ([5]; 240 min) | Human Plasma Prodrug (%) ([6]; 0 min) | other results
COc1ccc([C@@]23CCC(OC(=O)c4ccc(C(C)C)cc4)=C[C@@H]2N(C)CC3)cc1OC [Compound 371, (3aS,7aS)-3a-(3,4-dimethoxyphenyl)-1-methyl-2,3,3a,4,5,7a-hexahydro-1H-indol-6-yl4-isopropylbenzoate] | 0.00% | 100.0% | 5.0% | 0.2% | 0.1% | 0.0% | 0.0% | 100.0% | >99% | 94.4% | 90.7% | 91.3% | 78.0% | 100% | 10% | 0% | 0% | 0% | 0% | 100% | Mouse Plasma Compound 001 (%) ([1]; 0 min): 28.4%; Mouse Plasma Compound 001 (%) ([1]; 15 min): 31.54%; Mouse Plasma Compound 001 (%) ([1]; 30 min): 29.63%; Mouse Plasma Compound 001 (%) ([1]; 60 min): 30.25%; Mouse Plasma Compound 001 (%) ([1]; 120 min): 26.59%; Mouse Plasma Compound 001 (%) ([1]; 240 min): 19.82%; Human Plasma Compound 001 (%) ([2]; 60 min): 2.67%; Human Plasma Compound 001 (%) ([2]; 120 min): 5.08%; Human Plasma Compound 001 (%) ([2]; 240 min): 3.85%; Human Plasma Prodrug (%) ([6]; 15 min): 99%; Human Plasma Prodrug (%) ([6]; 30 min): 92%; Human Plasma Prodrug (%) ([6]; 60 min): 87%; Human Plasma Prodrug (%) ([6]; 120 min): 78%; Human Plasma Prodrug (%) ([6]; 240 min): 27%
COc1ccc([C@@]23CCC(OC(=O)c4cccc(C)c4C)=C[C@@H]2N(C)CC3)cc1OC [Compound 373, (3aS,7aS)-3a-(3,4-dimethoxyphenyl)-1-methyl-2,3,3a,4,5,7a-hexahydro-1H-indol-6-yl2,3-dimethylbenzoate] | 0% | 100.0% | 81.0% | 58.4% | 26.8% | 5.2% | 1.3% | 100.0% | 96.3% | >99% | 94.8% | 89.9% | 96.3% | 100% | 82% | 64% | 41% | 12% | 1% | 100% | Human Plasma Prodrug (%) ([6]; 15 min): 93.9%; Human Plasma Prodrug (%) ([6]; 30 min): 96.5%; Human Plasma Prodrug (%) ([6]; 60 min): 81.4%; Human Plasma Prodrug (%) ([6]; 120 min): 66.1%; Human Plasma Prodrug (%) ([6]; 240 min): 17.2%
COc1ccc([C@@]23CCC(OC(=O)c4cccc(C)c4)=C[C@@H]2N(C)CC3)cc1OC [Compound 374, (3aS,7aS)-3a-(3,4-dimethoxyphenyl)-1-methyl-2,3,3a,4,5,7a-hexahydro-1H-indol-6-yl3-methylbenzoate] | 0.00% | 100.0% | 9.7% | 0.3% | 0.1% | 0.0% | 0.0% | 100.0% | >99% | >99% | >99% | >99% | 95.4% | 100% | 33% | 4% | 0% | 0% | 0% | 100% | Human Plasma Compound 001 (%) ([2]; 30 min): 3.19%; Human Plasma Compound 001 (%) ([2]; 60 min): 5.92%; Human Plasma Compound 001 (%) ([2]; 120 min): 9.01%; Human Plasma Compound 001 (%) ([2]; 240 min): 7.54%; Human Plasma Prodrug (%) ([6]; 15 min): 98%; Human Plasma Prodrug (%) ([6]; 30 min): 88%; Human Plasma Prodrug (%) ([6]; 60 min): 84%; Human Plasma Prodrug (%) ([6]; 120 min): 62%; Human Plasma Prodrug (%) ([6]; 240 min): 11%
